The values below come from patent US20130011495A1, “ANTIFUNGAL COMPOUNDS AND USE THEREOF” (priority 2009, published 2013).

One data set concerns leaves. Kind of data set: Tests of phytotoxicity (upper limits of amounts). Format: in vivo.
For data set [1], the system named is Phaeoacremonium aleophilum. Kind of data set: Mycelial growth on solid medium. Conditions: for inhibition of development, dose dependence: 5, 10 and 20 mM.
For data set [2], the system named is Phaeomoniella chlamydospora. Kind of data set: Mycelial growth on solid medium. Conditions: for inhibition of growth, dose dependence: 5, 10 and 20 mM (whatever concentration); for inhibition of growth, dose dependence / inhibition of growth: FIG. 5 A; for inhibition of fungal development: FIG. 6 A.
In a further data set the test system is Eutypa lata. Conditions: pH 4.1; cited from earlier work.
The conditions of data set [3]: cited from earlier work.
The test system of another data set is esca. Conditions: 18.5 g/L injected into the trunk; cited from earlier work.
The conditions of data set [4]: in vivo; cited from earlier work.
The next data set deals with Inonotus obliquus. Conditions: concentrations of 0.9 and 9 mM; cited from earlier work.
Setting [5] is: ferrous salt 10 mM, FIG. 5 B, solid medium pH 4.2, 12 days.
The mark [6] stands for this setting: ferrous salt 20 mM, FIG. 5 B, solid medium pH 4.2, 12 days.
The mark [7] stands for this setting: sulfate 40 mM in BNM, solid medium pH 4.2, 12 days.
Setting [8] is: ferrous salt 5 mM, solid medium pH 4.2, 18 days.
Where [9] appears, read: ferrous salt 10 mM, solid medium pH 4.2, 18 days.
Setting [10] is: sulfate 40 mM in BNM, solid medium pH 4.2, 18 days.
Setting [11] is: Phaeoacremonium minimum, 288 h, pH 4.2, read-out: inhibition of growth.
Setting [12] is: 14C-labeled SA at 10 μM, after 4 hours of absorption.
Setting [13] is: Phaeomoniella chlamydospora, 432 h, pH 4.2, read-out: inhibition of growth.
Where [14] appears, read: 40 mM, used as the only nitrogen source (results not shown).
[15] abbreviates: Phaeomoniella chlamydospora, 432 h, pH 4.2, read-out: inhibition of mycelial development.

As usually defined, the inhibition of growth is the relative decrease from the control value, in per cent.

“Also recorded” adds a separate entry of the source. Read-outs that look alike come from different tables or passages of the source.

Experimental for leaves: According to the invention, the upper limits of amounts of the different products were determined in tests of phytotoxicity. First symptoms appear on the leaves at these amounts. […] These amounts can be slightly different or even greater depending on the sensitivity of the plant.

Turning to `O.O.O.O.O.O.O.O=S(=O)([O-])[O-].[Fe+2]` [iron sulfate], in the data set with leaves (concentration in the composition), the “upper limit of amount determined in tests of phytotoxicity (first symptoms appear on the leaves)” value is listed as 160 mM. Also, the “inhibition of development, dose dependence” value in data set [1] (FIG. 5 B) is reported as “dose-dependent inhibition”. Besides, the inhibition is listed as 15% inhibition in data set [1] (FeSO4 1 mM in BNM, solid medium pH 4.2, 12 days); 23.5% inhibition in data set [1] (FeSO4 2.5 mM in BNM, solid medium pH 4.2, 12 days); 33% inhibition in data set [1] (FeSO4 5 mM in BNM, solid medium pH 4.2, 12 days); 85% inhibition in data set [1] (FeSO4 10 mM in BNM, solid medium pH 4.2, 12 days); “completely inhibit” in data set [1] (setting [7]); 100% inhibition in data set [1] (sulfate 40 mM in BNM, solid medium pH 4.2, 12 days, listed as FeSO4). Moreover, the inhibition in data set [2] (FeSO4 1 mM in BNM, solid medium pH 4.2, 18 days) is given as 4% inhibition; in data set [2] (FeSO4 2.5 mM in BNM, solid medium pH 4.2, 18 days), 21% inhibition; in data set [2] (FeSO4 5 mM in BNM, solid medium pH 4.2, 18 days), 64% inhibition; in data set [2] (FeSO4 10 mM in BNM, solid medium pH 4.2, 18 days) it was 95% inhibition; in data set [2] (setting [10]), “completely inhibit”; in data set [2] (sulfate 40 mM in BNM, solid medium pH 4.2, 18 days, listed as FeSO4), 100% inhibition. For the same compound, the inhibition of growth result in data set [1] (ferrous salt 5 mM, FIG. 5 B, solid medium pH 4.2, 12 days) was “more inhibited with iron sulfate than with iron chloride and acetate”; in data set [1] (setting [5]), 75%; in data set [1] (setting [6]), “slight development”; in data set [2] (setting [8]) it was 65%; in data set [2] (setting [9]), “not the case”. In data set [2], the “inhibition of growth, dose dependence” value is recorded as “dose-dependent inhibition”.

On to `O=C(O)c1ccccc1O` [salicylic acid, 2-hydroxybenzoic acid], for which, in data set [1] (setting [11]), the inhibition at 500 µM amounted to 50%. For the same compound, the inhibition of development entry in data set [1] (salicylic acid 0.05 mM, FIG. 6 B, solid medium pH 4.2, 12 days) is on record as “slightly inhibited”. For the same compound, the inhibition of growth entry in data set [1] (salicylic acid 1 mM, FIG. 6 B, solid medium pH 4.2, 12 days) was “inhibited completely”. For the same compound, the “threshold value of antifungal action” value in the data set on Eutypa lata is on record as roughly 0.1 mM. Also, in data set [3] (setting [12]), the “concentration detected in phloem sap” value is 100 µM and the “concentration detected in xylem sap” value was 0.67 µM. For the same compound, the “concentration factor in the phloem” value in data set [3] (pH between 4.6 and 5.0) is recorded as roughly 10. For the same compound, in data set [2] (setting [13]), the inhibition at 500 µM was determined as 10% and the inhibition at 1000 µM was found to be 28%. Besides, in data set [2] (salicylic acid 0.05 mM, solid medium pH 4.2, 18 days), the “inhibition of fungal development” value is given as “does not inhibit”. The “inhibition of fungal development” value in data set [2] (salicylic acid 0.1 mM, solid medium pH 4.2, 18 days) is given as “does not inhibit”.

On to `O=S(=O)([O-])[O-].[K+].[K+]` [K2SO4, potassium sulfate], for which the inhibition entry in data set [1] (setting [7]) and in data set [2] (setting [10]) was “— (—: no inhibition)” in each case.

With `N.N.O=S(=O)(O)O` [ammonium sulfate], the growth entry in data set [1] (setting [14]) and in data set [2] (setting [14]) was “slows the growth” each time. Moreover, the inhibition result in data set [1] (setting [7]) and in data set [2] (setting [10]) was “— (—: no inhibition)” throughout.

As to `O=C([O-])c1ccccc1O.[K+]`, in the data set with esca, the efficacy on esca is reported as 45.4%.

Turning to iron chloride, the “inhibition of development, dose dependence” value in data set [1] (FIG. 5 B) was “dose-dependent inhibition”. For the same compound, the inhibition of growth in data set [1] (setting [5]) is 75%; in data set [1] (setting [6]), “completely inhibited”; in data set [2] (setting [9]), “not the case”. Also, the “inhibition of growth, dose dependence” value in data set [2] was “dose-dependent inhibition; also recorded: comparable to that obtained with iron sulfate”.

With `CC(=O)[O-].CC(=O)[O-].[Fe+2]` [iron acetate], the “inhibition of development, dose dependence” value in data set [1] (FIG. 5 B) was “dose-dependent inhibition”. The inhibition of growth in data set [1] (setting [5]) is recorded as 45%; in data set [1] (setting [6]), “completely inhibited”; in data set [2] (setting [8]), 40%; in data set [2] (setting [9]) it was “completely inhibited”. Moreover, the “inhibition of growth, dose dependence” value in data set [2] is recorded as “dose-dependent inhibition”.

As to `O=S(=O)([O-])[O-].[Mg+2]` [MgSO4, magnesium sulfate], the inhibition result in data set [1] (setting [7]) and in data set [2] (setting [10]) was “— (—: no inhibition)” each time.

As to `CCO[PH](=O)O` [fosetyl-aluminum, aluminum tris-O-ethylphosphonate], in the data set with leaves (in vivo), the “upper limit of amount determined in tests of phytotoxicity (first symptoms appear on the leaves)” value is 81 mM. Besides, in data set [4], the “pH of maximum absorption” value was 5.0 and the “time of detection in the phloem exudate after application” value was 30 min. Also, in data set [1] (setting [11]), the inhibition at 1700 µM is roughly 6%, the inhibition at 2700 µM worked out at 30% and the inhibition at 3400 µM was determined as 45%. Moreover, the inhibition of growth entry in data set [1] (fosetyl-aluminum 0.3 mM, FIG. 7 B, solid medium pH 4.2, 12 days) is “no effect”. For the same compound, in data set [1] (fosetyl-aluminum 1 mM, FIG. 7 B, solid medium pH 4.2, 12 days), the inhibition of growth result is “no effect”. Also, in data set [2] (setting [15]), the inhibition at 1000 µM was found to be 6%, the inhibition at 1700 µM is 14%, the inhibition at 2700 µM stood at 46% and the inhibition at 3400 µM came out at 86%. Moreover, in data set [2] (fosetyl-aluminum 0.3 mM, FIG. 7 A, solid medium pH 4.2, 18 days), the “inhibition of mycelial development” value was “no effect”.

In the case of `O=S(=O)([O-])[O-].[Cu+2]` [CuSO4, copper sulfate], the inhibition in data set [1] (setting [7]) was 100% inhibition; in data set [1] (sulfate 40 mM in BNM, solid medium pH 4.2, 12 days, listed as copper sulfate) it was “completely inhibit”; in data set [2] (setting [10]), 100% inhibition; in data set [2] (sulfate 40 mM in BNM, solid medium pH 4.2, 18 days, listed as copper sulfate), “completely inhibit”.

As to `N[C@@H](CS)C(=O)O` [cysteine, L-cysteine], the inhibition of development entry with Inonotus obliquus was “inhibits the development”. Further, in data set [1] (setting [11]), the inhibition at 500 µM is 11%, the inhibition at 1000 µM was determined as 18%, the inhibition at 5000 µM worked out at 24% and the inhibition at 10000 µM worked out at 37%. In addition, in data set [2] (setting [13]), the inhibition at 500 µM was 0%, the inhibition at 1000 µM worked out at 13%, the inhibition at 5000 µM turned out to be 34% and the inhibition at 10000 µM is 80%.
